Results taken from patent US20190201526A1, “Methods and Compositions for Treating Cancers by Inhibiting Estrogen Signaling in Myeloid-Derived Suppressor Cells” (The Wistar Institute of Anatomy and Biology, priority 2016, published 2019).

Experiments:
[1] = system: metastatic solid tumors; conditions: patients with metastatic solid tumors; Soliman, et al., Oncotarget 2014; cited from earlier work
[2] = system: STAT3; assay: pSTAT3 in MDSCs from tumor-bearing mice (Western blot); assay type: in vivo, mouse; conditions: spleens of advanced ovarian cancer-bearing mice treated with E2, compared to oophorectomized mice (FIG. 6A)
Protocol: (§1) Female 5-8 week old wild-type (WT) C57BL/6 and congenic Ly5.1 mice were purchased from the Charles River Frederick facility. Esr1 knockout (ERα KO) were purchased from The Jackson Laboratory. Ovariectomies were performed by Charles River staff at 5 weeks of age. Mice were treated with vehicle (0.1% ethanol) or 10 μM estradiol (USP grade, Sigma) drinking water refreshed every 3-4 days. All mice were maintained in pathogen-free barrier facilities. All experiments were conducted according to the approval of the Wistar Institute Institutional Animal Care and Use Committee.
Cells were lysed in RIPA buffer supplemented with protease inhibitors, phosphatase inhibitors, and Na3VO4 (Thermo) according to manufacturer protocol. Protein quantification was determined via BCA assay, and protein was run on TGX 4-15% gradient gels. Following transfer, PVDF membranes were blocked with 5% BSA in TBS+ 0.05% Tween-20. The following primary antibodies were added to membranes, as indicated, and incubated overnight: Jak2 (rabbit clone#D2E12), Stat3 (clone#124H6) and pStat3 (Tyr705)(rabbit clone#D3A7), from Cell Signaling; and ERα (Thermo, clone#TE111.5D11) and beta-actin (Sigma, clone#AC-15).
Following secondary staining with HRP-conjugated anti-mouse or rabbit IgG, membranes were developed using ECL prime (GE Healthcare).

[3] = system: ID8-Defb29/Vegf-α peritoneal tumors; assay: Intraperitoneal ID8-Defb29/Vegf-α ovarian tumor model (survival, flow cytometry, ELISpot); assay type: in vivo, mouse
Protocol: as §1
(§2) ID8 cells were retrovirally transduced to express Defb29 and Vegf-α (Conejo-Garcia, et al. “Tumor-infiltrating dendritic cell precursors recruited by a beta-defensin contribute to vaculogenesis under the influence of Vegf-A.” Nat. Med. (2004) 10:950-8). MCF-7, MDA-MB-231, and LLC1 cells were obtained from American Type Culture Collection. Peritoneal tumors were initiated in mice by injecting 3X106 ID8-Defb29/Vegf-α cells intraperitoneal (i.p.). Intraperitoneal cells were harvested from tumorbearing mice by flushing the peritoneal cavity with PBS. Cells were maintained in vitro at 37° C., 5% CO2 by culturing in RPMI+10% FBS or steroid free media (SFR10), which was comprised of phenol red-free RPMI+10% charcoal-stripped FBS. Cells were treated in vitro with vehicle (0.1% DMSO) or varying concentrations of estradiol, fulvestrant, or Methylpiperidino pyrazole (MPP) purchased from Cayman Chemical. Cell line proliferation was determined by MTS assay (Promega), and increased/decreased proliferation relative to vehicle was calculated.
For generating mixed BM chimeras, mononuclear BM cells were collected from adult agematched CD45.1 (congenic) WT or CD45.2 Esr1^−/− donor mice, and 1-2×10^6 cells were mixed in a 1:1 ratio and retro-orbitally injected into lethally irradiated (˜950 rad) adult recipients. Mixed chimeras were analyzed after 7-8 weeks as indicated.
(§3) Flow cytometry was performed by staining cells with Zombie Yellow viability dye, blocking with anti-CD16/32 (2.4G2), and staining for 30 min at 4° C. with the following anti-mouse antibodies: CD45 (30-F11), CD45.1 (A20), CD45.2 (104), CD11c (N418), I-A/I-E (M5/114.15.2), CD3 (145-2C11), Ly6G (1A8), Ly6C (HK1.4), gp130 (4H1B35), IL6R (D7715A7), Gr1 (RB6-4C5), CD4 (RM4-5), CD8b (YTS156.7.7), CD44 (IM7), CD69 (H1.2F3), CD11b (M1/70); or anti-human antibodies: CD45 (HI30), CD11c (Bul5), HLA-DR-APC/Cy7 (L243), CD15 (HI98), CD14 (HCD14), CD11b (ICRF44), CD33 (WM53), CD19 (HIB19). Samples were subsequently run using an LSRII and analyzed using FlowJo.
Dendritic cells (BMDCs) were differentiated by culturing WT mouse bone marrow for 7 days with 20 ng/mL GM-CSF (Peprotech 315-03), refreshed every 3 days. BMDCs were subsequently primed with tumor antigen by pulsing for 24 hours with irradiated (100 Gy+30 minutes UV) ID8-Defb29/Vegf-α cells at a ratio of 10:1. ELISPOT assay was performed by stimulating 1X105 cells obtained from peritoneal wash with 1X104 antigen-primed BMDCs in a 96-well filter plate (Millipore MSIPS4510) coated with IFNγ capture antibody according to manufacturer's guidelines (eBioscience 88-3784-88). Following incubation at 37° C., 5% CO2 or 48 hours, positive spots were developed using Avidin-AP and BCIP-NBT substrate (R&D Systems SEL002).

[4] = system: ID8-Defb29/Vegf-α cells; assay: Cell line proliferation by MTS assay; assay type: cell-based, mouse; conditions: ID8-Defb29/Vegf-α cells in vitro, increasing doses, steroid-free media; MCF-7 as positive control (FIG. 1D)
Source text: as §2

[5] = system: IL6Rα chain, gp130; assay: Surface expression of IL6Rα and gp130 on BM-derived MDSCs (flow cytometry); assay type: cell-based, mouse
Protocol: as §3
Mouse MDSCs were expanded from mouse bone marrow harvested by flushing tibias and femurs with media. Following red blood cell lysis, 2.5×10^6 cells were cultured in 10 mL of RPMI+10% FBS augmented with recombinant mouse 40 ng/mL GM-CSF^+40 ng/mL IL6 (Peprotech) and incubated at 37° C., 5% CO2 3 or 6 days. Vehicle, estradiol, or MPP treatments were added as described above. For 6 day cultures, cytokines and estrogen treatments were refreshed on day 3. Following incubation, floating and adherent cells were collected, and MMDSCs and G-MDSCs were isolated via MDSC purification kit according to manufacturer's protocol for further analysis. […] Cells were subsequently harvested and analyzed by flow cytometry.

[6] = system: Jak2; assay: Jak2 RNA and protein expression in BM-derived MDSCs; assay type: cell-based, mouse
Protocol: (§4) Mouse MDSCs were expanded from mouse bone marrow harvested by flushing tibias and femurs with media. Following red blood cell lysis, 2.5×10^6 cells were cultured in 10 mL of RPMI+10% FBS augmented with recombinant mouse 40 ng/mL GM-CSF^+40 ng/mL IL6 (Peprotech) and incubated at 37° C., 5% CO2 3 or 6 days. Vehicle, estradiol, or MPP treatments were added as described above. For 6 day cultures, cytokines and estrogen treatments were refreshed on day 3. Following incubation, floating and adherent cells were collected, and MMDSCs and G-MDSCs were isolated via MDSC purification kit according to manufacturer's protocol for further analysis. Human MDSCs were expanded from human lung cancer patient bone marrow acquired as single cell suspensions (see above). Briefly, 2×10^6 cells were cultured in 3 mL of IMDM^+ 15% FBS supplemented with recombinant human 40 ng/mL GM-CSF^+ 40 ng/mL IL6 (Peprotech) and treated with Vehicle, 2 μM, or 10 μM MPP (see above) for 4 days. Cells were subsequently harvested and analyzed by flow cytometry.
(§5) Cells were lysed in RIPA buffer supplemented with protease inhibitors, phosphatase inhibitors, and Na3VO4 (Thermo) according to manufacturer protocol. Protein quantification was determined via BCA assay, and protein was run on TGX 4-15% gradient gels. Following transfer, PVDF membranes were blocked with 5% BSA in TBS+ 0.05% Tween-20. […]

[7] = system: Lewis Lung Carcinomas (LLC); assay: Lewis Lung Carcinoma (LLC) tumor progression in mice; assay type: in vivo, mouse; conditions: estradiol supplementation, WT mice (FIG. 3A)
Protocol: as §1
ID8 cells were retrovirally transduced to express Defb29 and Vegf-α (Conejo-Garcia, et al. “Tumor-infiltrating dendritic cell precursors recruited by a beta-defensin contribute to vaculogenesis under the influence of Vegf-A.” Nat. Med. (2004) 10:950-8). MCF-7, MDA-MB-231, and LLC1 cells were obtained from American Type Culture Collection. Peritoneal tumors were initiated in mice by injecting 3X106 ID8-Defb29/Vegf-α cells intraperitoneal (i.p.). Intraperitoneal cells were harvested from tumorbearing mice by flushing the peritoneal cavity with PBS. […] Cell line proliferation was determined by MTS assay (Promega), and increased/decreased proliferation relative to vehicle was calculated.

[8] = system: STAT3; assay: pSTAT3 and total STAT3 in in vitro BM-derived MDSC cultures (Western blot); assay type: cell-based, mouse; conditions: 100 ng/mL E2 or 2 μM MPP (FIG. 6B)
Protocol: as §4, §5

[9] = system: G- or M-MDSCs isolated from 6-day bone marrow cultures; assay: MDSC suppression assay (Cell Trace Violet dilution of T cells); assay type: cell-based, mouse; conditions: 6-day BM cultures
Protocol: as §4
Naïve WT T cells were purified from spleens as described and labeled with the proliferation tracker Cell Trace Violet according to manufacturer protocol. T cell proliferation was stimulated by adding anti-CD3/CD28 mouse T-activator beads (Thermo) at a 1:1 T cell to bead ratio according to manufacturer protocol. […]

Structure (SMILES) | Activity in human clinical trials [1] | Levels of pSTAT3Y705 in monocytic and granulocytic MDSCs [2] | Tumor progression in irradiated mice reconstituted with wild-type bone marrow ([3]; E2 treatment, compared to mice reconstituted with ERα-deficient bone marrow (FIG. 4B)) | IFN-γ ELISpot response of tumor-associated T cells to tumor antigens ([3]; T cells from E2-treated mice vs control and oophorectomized mice (FIG. 2C)) | Inflammation at tumor (peritoneal) beds ([3]; ad libitum estradiol supplementation, tumor-bearing mice (FIG. 2A)) | Tumor progression in ERα KO hosts ([3]; estradiol supplementation, ERα KO mice (FIG. 4A)) | Tumor progression in wild-type controls ([3]; estradiol supplementation, wild-type mice (FIG. 4A)) | Proportions of CD44+ CD69+ tumor-associated CD4 and CD8 T-cells ([3]; estradiol-supplemented tumor-bearing mice (FIG. 2B)) | Percentage and total numbers of M-MDSC and G-MDSC ([3]; spleen and tumor beds of tumor-bearing mice (FIGS. 3B to 3E)) | Proliferation relative to vehicle (response to treatment) [4] | Surface expression of the IL6Rα chain ([5]; BM-MDSCs (FIG. 6D, left)) | Surface expression of gp130 ([5]; BM-MDSCs (FIG. 6D, right)) | Jak2 protein expression ([6]; BM-derived MDSCs (FIG. 6E, right)) | Jak2 RNA expression ([6]; cytokine-induced bone marrow MDSCs of both lineages (FIG. 6E, left)) | Malignant growth of LLC tumors [7] | Survival of LLC tumor-bearing mice [7] | Phospho-STAT3 in M-MDSCs and G-MDSCs [8] | Inhibitory activity of M-MDSCs ([9]; 100 ng/mL E2 (FIG. 5C, bottom)) | Immunosuppressive activity of G-MDSCs ([9]; 100 ng/mL E2 or 2 μM MPP (FIG. 5C, top))
Cn1cc(C[C@@H](N)C(=O)O)c2ccccc21 [Indoximod, 1-methyl-D-tryptophan] | has shown activity | – | – | – | – | – | – | – | – | – | – | – | – | – | – | – | – | – | –
C[C@]12CC[C@@H]3c4ccc(O)cc4CC[C@H]3[C@@H]1CC[C@@H]2O [estradiol] | – | significantly increased | tumors progress significantly faster | responded significantly worse than either group | augmented inflammation | failed to accelerate tumor progression | significant effects | decreases | increased | fail to respond | did not elicit changes | did not elicit changes | reproducible Jak2 up-regulation | transcriptional up-regulation | accelerated malignant growth | decreased survival | increased phospho-STAT3 levels | did not affect | more potently immunosuppressive
